Measurements published in article PMC3070735, “Uremic Toxins Inhibit Transport by Breast Cancer Resistance Protein and Multidrug Resistance Protein 4 at Clinically Relevant Concentrations” (PLoS ONE, 2011).
Where a name gives a salt, the structure may show the parent alone. Read-outs that look alike come from different tables or passages of the source. Marks after values point to notes of the source that are not given here.

Assays:
[1] = Plasma concentrations of uremic toxins in CRF and ESRD patients and healthy controls (HPLC, LC/MS-MS); format: in vivo, human
Method: Blood samples were obtained from 4 patients with chronic renal failure (CRF) during regular check-up, 6 patients with end-stage renal disease (ESRD) before hemodialysis and 4 healthy controls. None of the subjects had been fasting at the time of blood sampling. Blood was collected in an EDTA Vacutainer and was immediately centrifuged at 3,000 x g for 10 min. Subsequently, plasma was collected and stored at −20°C. Before chromatography an aliquot of plasma was diluted in H2O (1∶1) and deproteinized with perchloric acid (final concentration 3.3% (v/v)). Next, samples were centrifuged at 12,000 x g for 3 min and 50 µl of the supernatant was injected into the HPLC-system (Spectra-Physics Analytical, Spectrasystem SCM400). […] Separation was performed at a flow rate of 1 ml/min with eluent A (95% (v/v) H2O, 5% (v/v) acetonitril and 0.1% (v/v) heptafluorobutyric acid) and eluent B (50% (v/v) H2O, 50% (v/v) acetonitrile and 0.1% (v/v) heptafluorobutyric acid) under the following gradient conditions: 0–1 min, 100% eluent A; 1–15 min, 100–25% eluent A; 15–17 min, 25% eluent A; 17–18 min, […]; 18–23 min, 100% eluent A. The compounds were detected at a wavelength of 230 nm. For the detection of phenylacetic acid, chromatography was performed on a C18 HPLC column (Polaris 3 C18-A 150×4.6 mm; Varian, Middelburg, the Netherlands) with eluent A (97% (v/v) 50 mM sodium phosphate buffer [pH 6.5] and 3% (v/v) methanol) and eluent B (50% (v/v) H2O, 49% (v/v) acetonitrile and 1% (v/v) tetrahydrofuran) using the following gradient: 0–1 min, 100% eluent A; 1–15 min, 100–90% eluent A; 15–18 min, 10–100% eluent B; 18–22 min, 100% eluent B; 22–25 min, 0–100% eluent A; 25–30 min, 100% eluent A. The flow rate was 1 ml/min and phenylacetic acid was measured at a wavelength of 215 nm. Standards of the compounds were also run in order to quantify the amount of toxins found in the samples. Acquired data were processed with PC1000 software (Spectrasystem).
To determine the levels of kynurenic acid, blood was collected from CRF patients and processed as described above. Subsequently, 10 µl of the clear supernatant was injected into the LC/MS-MS system that consisted of an Accela HPLC system (Thermo scientific, Breda, the Netherlands) equipped with a C18 HPLC column (VisionHT C18 B 100×2 mm, 1.5 µm; Grace). Separation was performed at a flow rate of 150 µl/min with eluent A (5 mM ammonium formate+0.01% (v/v) trifluoroacetic acid) and eluent B (50% acetonitrile) under the following gradient conditions: 0–10 min, 98–50% eluent A; 10–15 min, 50% eluent A; 15–16 min, 50–98% eluent A; 16–21 min, 98% eluent A. The fractions eluted were directly passed through a TSQ Vantage tandem mass spectrometer (Thermo scientific) equipped with an electro-spray ionization source operating in the positive ion mode. The ion spray voltage was 4 kV, source temperature was 350°C and collision gas pressure was 1.5 bar. Kynurinic acid and the internal standard 1-methyl-tryptophan were quantified by selected reaction monitoring (SRM). […] Acquired data were processed with Thermo Xcaliber software (Thermo scientific).

[2] = Uremic plasma concentrations (Cu, Cmax) in CKD patients from the EUTox database and literature; format: in vivo, human; settings: calculated as Cmax = Cu + 2 SD; read-out: Hypothetical Cmax
Text: The calculated Ki and IC20 values were compared with the mean plasma concentrations measured in ESRD patients during this study (Cm), the highest mean/median (Cu) and the highest maximal plasma concentrations (Cmax) measured in the literature in patients with CKD are also shown. The IC20 value was used since we believe that a 20% decrease in transport can already have a clinical impact. The Cu and Cmax values were obtained from the online database of the European Uremic Toxin (EUTox) Work Group (www.uremic-toxins.org; [19]), unless stated otherwise.

[3] = plasma of CKD patients, cited from earlier work
[4] = CRF patients (n = 4), total plasma
[5] = ESRD patients (n = 6), total plasma
[6] = healthy controls (n = 4), total plasma

Structure (SMILES) | Cm, mean plasma concentration determined in this study ([1]; human, in vivo) | Mean plasma concentration [1, 4] | Cm, mean plasma concentration determined in this study [1, 5] | Mean plasma concentration [1, 6] | Cu, highest mean/median uremic concentration ([3]; ref www.uremic-toxins.org [19]) | other results
O=C(O)Cc1c[nH]c2ccccc12 [indole-3-acetic acid] | 4 µM | – | – | – | – | –
O=C(O)Cc1ccccc1 [phenylacetic acid] | – | 4 µM | 18 µM | 5 µM | – | Maximum plasma concentration ([1]; CRF patients): 9 µM; Maximum plasma concentration ([1]; ESRD patients): 83 µM; Cmax [2]: 7700 µM; Cu, highest median plasma concentration [3]: 3.5 mM; Cu, highest mean/median uremic concentration ([3]; obtained from literature): 3490 ^a µM
O=S(=O)(O)Oc1c[nH]c2ccccc12 [indoxyl sulfate] | – | 65 µM | 129 µM | 13 µM | 211 µM | –
O=C(O)c1cc(=O)c2ccccc2[nH]1 [kynurenic acid] | 1 µM | – | – | – | – | –
O=C(O)CNC(=O)c1ccccc1 [hippuric acid] | 160 µM | – | – | – | 1380 µM | Cu, highest median uremic concentration ([3]; ref www.uremic-toxins.org [19]): 1.4 mM; Cmax ([3]; ref www.uremic-toxins.org [19], read-out: Cmax, maximal uremic concentration): 2600 µM
